Source: patent US9139525B2, “N-oxide and/or di-N-oxide derivatives of dopamine receptor stabilizers/modulators displaying improved cardiovascular side-effects profiles” (TEVA PHARMACEUTICALS INTERNATIONAL GMBH, priority 2007, dated 2015)

Legend:
[1] = after S-3-OTf-3-PPP-N-ox (13) 100 μmol/kg p.o.; between 0 h and 6 h; sampled every 1 h
Description: 3-OTf-3-PPP-N-ox was measured at Rt=11.68 min with a +MRM of 368/235. Precursor 3-OTf-3-PPP was measured at Rt=11.50 min with a +MRM of 352/219.

[2] = system: dopamine, DOPAC and 5-HIAA in the striatum; assay: Microdialysis in rat striatum (freely moving rats; dopamine, DOPAC and 5-HIAA by HPLC with electrochemical detection); type: in vivo
Description: Microdialysis in Rat Striatum Standard microdialysis experiments were performed on-line in freely moving rats. The striatum was perfused with a Ringer solution and dopamine, DOPAC and 5-HIAA were quantified by HPLC with electrochemical detection.

[3] = oral administration, 91 μmol/kg

Which results are given for `CCCN1CCC[C@@H](c2cccc(OS(=O)(=O)C(F)(F)F)c2)C1` [(−)-3-PPP triflate, S-3-Trifluoro-methanesulfonyloxy-(1-n-propyl-phenyl)piperidine, reference compound]?
striatal concentration of the precursor after dosing of the N-oxide [1]: continuous rise; 3,4-dihydroxyphenylacetic acid (DOPAC) level, maximum ([2]; 100 μmol/kg per os): about 175%; dopamine (DA) level, maximum ([2]; 100 μmol/kg per os): about 175%; level of 5-hydroxyindolacetic acid (HIAA) ([2]; 100 μmol/kg per os): around 100%; time of maximum of DA and DOPAC level ([2]; 100 μmol/kg per os): about 150 minutes; levels of dopamine and DOPAC after about 195 minutes ([2]; 100 μmol/kg per os, after about 195 minutes (3.25 hours)): decrease; dopamine level, second rise ([2]; 100 μmol/kg per os, after about 240 minutes (4 hours)): 350 % of controls

Which “3,4-dihydroxyphenylacetic acid (DOPAC) level” value ([2]; 50 μmol/kg per os) does the source give for `CCC[N+]1([O-])CCC(c2cccc(S(C)(=O)=O)c2)CC1` (centres unmarked) [ACR16 N-oxide, 4-(3-Methanesulfonyl-phenyl)-1-propyl-piperidine-1-oxide] here?
The value was “slight rise”.

And the “dopamine (DA) level” value ([2]; 50 μmol/kg per os, after about 45 minutes)?
Its value is “considerable rise”.

And the “3,4-dihydroxyphenylacetic acid (DOPAC) level” value ([2]; 100 μmol/kg per os given at 180 minutes after a first 50 μmol/kg per os)?
Its value is “goes up”.

And the “level of dopamine, maximum height” value ([2]; 100 μmol/kg per os given at 180 minutes after a first 50 μmol/kg per os, peak after 240 minutes)?
Its value is “more than 250 % of controls”.

Which results are given for `CCC[N+]1([O-])CC=C(c2cccc(S(C)(=O)=O)c2)CC1` (centres unmarked) [ACR16-ene-N-ox, 4-(3-Methanesulfonyl-phenyl)-1-propyl-1,2,3,6-tetrahydro-pyridine-N-oxide]?
DA release [2, 3]: about 300 % of controls; DOPAC release [2, 3]: about 300 % of controls; duration of the effects on DA and DOPAC release [2, 3]: > 4 h

Which results are given for `CCC[N+]1([O-])CCCC(c2cccc(OS(=O)(=O)C(F)(F)F)c2)C1` (centres unmarked) [S-3-PPP triflate-N-oxide, S-Trifluoromethanesulfonic acid 3-(1-propyl-piperidin-3-yl)-phenyl ester-1-oxide]?
3,4-dihydroxyphenylacetic acid (DOPAC) level, maximum ([2]; 100 μmol/kg per os): ~150%; dopamine (DA) level, maximum ([2]; 100 μmol/kg per os): about 230%; level of 5-hydroxyindolacetic acid (HIAA) ([2]; 100 μmol/kg per os): around 100%; time of maximum of DA and DOPAC level ([2]; 100 μmol/kg per os): about 120 minutes; course of DA and DOPAC levels after the maximum ([2]; 100 μmol/kg per os, whole experiment (6 h)): constant over the whole experiment; pharmacological effect and duration of action ([2]; microdialysis in rat striatum): pronounced pharmacological effect with a very long duration of action
